This is an account of results in PubChem BioAssay (NCI).

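Growth conditions: 96-well plates. Treatment: test compound, 48 hours, 5 concentrations. Analysis: linear interpolation between bracketing concentrations; unreached endpoints set to highest concentration. GI50 = concentration required for 50% inhibition of growth. The concentration for full growth arrest is given as TGI.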

Some test systems named below: MDA-MB-435; 786-0 renal; CAKI-1 renal; K-562 leukemia; OVCAR-8 ovarian; A549 NSCLC; SF-295 CNS; PC-3 prostate; SN12C renal; NCI-H226 lung.
Holding throughout (test): inhibition of tumour cell growth, NCI panel, 48 h

`c1ccc(CN2CCC3(CC2)SSC2(CCN(Cc4ccccc4)CC2)S3)cc1`: the TGI in the assay on MDA-MB-435 is greater than 100 µM; with 786-0 renal, greater than 100 µM; with CAKI-1 renal it was 85.5 µM; in the assay with K-562 leukemia, greater than 100 µM; in the assay with OVCAR-8 ovarian it was greater than 100 µM; with A549 NSCLC, greater than 100 µM. For the same molecule, the TGI in the assay on SF-295 CNS is 83.9 µM; in the assay with PC-3 prostate, greater than 100 µM; in the assay with SN12C renal it was greater than 100 µM.
In the case of `O=c1cc(-c2ccccc2F)[nH]c2ccc(N3CCCC3)cc12`, the GI50 in the assay with NCI-H226 lung, in the assay on 786-0 renal, in the assay with K-562 leukemia, in the assay with OVCAR-8 ovarian, with A549 NSCLC and in the assay with SN12C renal was less than 0.001 µM in each case. The TGI in the assay with NCI-H226 lung was 0.0215 µM; with 786-0 renal it was greater than 100 µM; in the assay on K-562 leukemia it was greater than 100 µM; with A549 NSCLC, greater than 100 µM; with PC-3 prostate, greater than 100 µM; with SN12C renal, greater than 100 µM.
`CC(=O)OC[C@]12CC[C@@H](C(=O)CBr)[C@@H]1[C@H]1CC[C@@H]3[C@@]4(C)CCCNC(C)(C)[C@@H]4CC[C@@]3(C)[C@]1(C)CC2`: the GI50 with MDA-MB-435 is 3.81 µM; in the assay on 786-0 renal, 1.65 µM; in the assay with CAKI-1 renal it was 1.81 µM; in the assay on K-562 leukemia, 2.61 µM; in the assay on OVCAR-8 ovarian, 4.1 µM; with A549 NSCLC it was 14.5 µM. Moreover, the GI50 was 14.6 µM with SF-295 CNS, 1.65 µM in the assay on PC-3 prostate and 2.28 µM in the assay on SN12C renal. The TGI with MDA-MB-435 came to 13.8 µM; in the assay with 786-0 renal, 3.27 µM; in the assay with CAKI-1 renal, 4.13 µM; in the assay with K-562 leukemia, 8.33 µM; in the assay with OVCAR-8 ovarian it was 23.8 µM; in the assay on A549 NSCLC, 31.9 µM. Further, the TGI came to 28.2 µM in the assay on SF-295 CNS, 3.72 µM in the assay with PC-3 prostate and 5.25 µM in the assay on SN12C renal.
Take `NC(=O)c1ccc(I)c(N=O)c1`: the GI50 with MDA-MB-435 was 29.6 µM; in the assay on NCI-H226 lung, 58.8 µM; in the assay with 786-0 renal, 61.8 µM; in the assay with CAKI-1 renal, 20 µM; in the assay with OVCAR-8 ovarian, 25.8 µM; in the assay with A549 NSCLC, 42.1 µM. Besides, the GI50 was greater than 100 µM with SF-295 CNS and 55.8 µM in the assay with SN12C renal. The TGI with MDA-MB-435 is 89.5 µM; in the assay on NCI-H226 lung, greater than 100 µM; in the assay with 786-0 renal, greater than 100 µM; in the assay on CAKI-1 renal, 45.4 µM; with OVCAR-8 ovarian it was 60.6 µM; with A549 NSCLC, greater than 100 µM. Moreover, the TGI in the assay with SF-295 CNS and in the assay with SN12C renal was greater than 100 µM each time.
For the molecule `COc1cccc2c1ccc1nc3cccc(C(=O)N[C@H](C)CN(C)C)c3nc12`, the GI50 with MDA-MB-435 is 0.0976 µM; in the assay on 786-0 renal, 0.0887 µM; with K-562 leukemia it was 0.0474 µM; with OVCAR-8 ovarian, 0.0528 µM; in the assay with A549 NSCLC, 0.0402 µM; in the assay with SF-295 CNS, 0.0586 µM. The GI50 is 0.0819 µM in the assay with PC-3 prostate and 0.0879 µM in the assay with SN12C renal. The TGI with MDA-MB-435 was determined as 0.986 µM; in the assay on 786-0 renal, 2.44 µM; with K-562 leukemia, 4.77 µM; with OVCAR-8 ovarian it was 9.5 µM; in the assay with A549 NSCLC it was 1.99 µM; with SF-295 CNS it was 2.58 µM. Besides, the figures for the TGI in the assay with PC-3 prostate and in the assay with SN12C renal were 2.13 µM and 11.7 µM, respectively.
As to `CCOC(=O)c1c2c(n(Cc3ccc(Cl)cc3Cl)c1C)-c1nc[nH]c1C(=O)C2=O`, the GI50 in the assay with MDA-MB-435 was 13.5 µM; with NCI-H226 lung it was 14.2 µM; in the assay on 786-0 renal, 3.37 µM; in the assay with CAKI-1 renal it was 13.4 µM; in the assay with K-562 leukemia, 3.21 µM; in the assay with OVCAR-8 ovarian it was 10.5 µM. The GI50 was 10.9 µM in the assay on A549 NSCLC, 20.5 µM with SF-295 CNS and 3.02 µM in the assay with SN12C renal. The TGI in the assay on MDA-MB-435 amounted to 30.1 µM; in the assay on NCI-H226 lung, 31.5 µM; in the assay with 786-0 renal, 11.3 µM; with CAKI-1 renal it was 31.8 µM; in the assay on K-562 leukemia it was 12.3 µM; with OVCAR-8 ovarian, 22.2 µM. Further, the TGI stood at 23.1 µM with A549 NSCLC, 92.2 µM with SF-295 CNS and 13.1 µM in the assay on SN12C renal.
On to `CN1CCN(CCOc2ccc(-c3cnc4c(-c5ccc(C(F)(F)F)cc5)cnn4c3)cc2)CC1`, for which the GI50 was 1.61 µM with MDA-MB-435; 1.67 µM in the assay with 786-0 renal; 1.42 µM in the assay on CAKI-1 renal; 1.75 µM with OVCAR-8 ovarian; 1.63 µM with A549 NSCLC; 1.75 µM with SF-295 CNS. Moreover, the GI50 in the assay with PC-3 prostate was 1.43 µM; in the assay on SN12C renal it was 1.66 µM. Further, the TGI in the assay with MDA-MB-435 was 3.02 µM; in the assay with 786-0 renal, 3.16 µM; in the assay with CAKI-1 renal, 2.72 µM; in the assay on OVCAR-8 ovarian, 3.46 µM; in the assay on A549 NSCLC, 3.3 µM; in the assay with SF-295 CNS, 3.31 µM. Also, the TGI in the assay on PC-3 prostate was found to be 2.86 µM; in the assay on SN12C renal, 3.1 µM.
For `OCC(O)C(Cl)CCl` (centres undefined), the TGI in the assay on NCI-H226 lung, in the assay with 786-0 renal, in the assay with CAKI-1 renal, with K-562 leukemia, with OVCAR-8 ovarian and in the assay with A549 NSCLC was greater than 100 µM in each case. The TGI with SF-295 CNS, in the assay with PC-3 prostate and in the assay with SN12C renal was greater than 100 µM throughout.
